According to ChEMBL document CHEMBL1909604, “A novel potential therapeutic avenue for autism: design, synthesis and pharmacophore generation of SSRIs with dual action” (Bioorg Med Chem Lett, 2011):
pKi: −log10 of the molar value.

Tests used:
[1] = molecular target: 5-hydroxytryptamine receptor 1B (Homo sapiens, UniProt P28222); assay: Displacement of [3H]carboxytryptamine from recombinant human 5-HT1B receptor expressed in HEK cells by scintillation counting; type: cell-based, HEK293
[2] = molecular target: 5-hydroxytryptamine receptor 1D (Homo sapiens, UniProt P28221); assay: Displacement of [3H]GR125743 from recombinant human 5-HT1D receptor expressed in HEK cells by scintillation counting; type: cell-based, HEK293
5-hydroxytryptamine receptor 1D, sequence (P28221 whole entry): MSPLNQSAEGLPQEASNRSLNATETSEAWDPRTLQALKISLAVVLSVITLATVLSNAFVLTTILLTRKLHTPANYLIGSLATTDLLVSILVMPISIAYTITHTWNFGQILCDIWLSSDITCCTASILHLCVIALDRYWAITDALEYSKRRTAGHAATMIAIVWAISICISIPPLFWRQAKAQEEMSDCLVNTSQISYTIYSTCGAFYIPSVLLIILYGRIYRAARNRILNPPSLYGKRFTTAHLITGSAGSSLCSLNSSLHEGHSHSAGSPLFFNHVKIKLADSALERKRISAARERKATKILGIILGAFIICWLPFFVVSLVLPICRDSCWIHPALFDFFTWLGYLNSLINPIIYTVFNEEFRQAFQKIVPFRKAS

5-hydroxytryptamine receptor 1B, sequence (P28222 whole entry): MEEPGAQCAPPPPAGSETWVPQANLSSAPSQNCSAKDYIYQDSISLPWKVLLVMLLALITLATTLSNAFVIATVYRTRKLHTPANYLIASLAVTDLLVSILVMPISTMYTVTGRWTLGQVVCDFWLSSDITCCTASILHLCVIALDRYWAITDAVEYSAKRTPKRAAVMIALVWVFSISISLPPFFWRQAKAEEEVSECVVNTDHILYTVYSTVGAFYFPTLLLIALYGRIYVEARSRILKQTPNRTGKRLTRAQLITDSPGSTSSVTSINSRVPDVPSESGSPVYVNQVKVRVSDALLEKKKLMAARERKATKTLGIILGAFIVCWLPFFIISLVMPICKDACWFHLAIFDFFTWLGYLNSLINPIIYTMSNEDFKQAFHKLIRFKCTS

- pKi [1]: 6.92
- pKi [2]: 7.36
Compound: COc1ccc(NC(=O)c2ccc3c(c2)N(C)C(=O)CN3c2ccc(Cl)c(Cl)c2)cc1N1CCN(C)CC1
